Biological target: T1, Integrin alpha-4 (Homo sapiens, UniProt P13612)
T1 sequence (P13612 whole entry): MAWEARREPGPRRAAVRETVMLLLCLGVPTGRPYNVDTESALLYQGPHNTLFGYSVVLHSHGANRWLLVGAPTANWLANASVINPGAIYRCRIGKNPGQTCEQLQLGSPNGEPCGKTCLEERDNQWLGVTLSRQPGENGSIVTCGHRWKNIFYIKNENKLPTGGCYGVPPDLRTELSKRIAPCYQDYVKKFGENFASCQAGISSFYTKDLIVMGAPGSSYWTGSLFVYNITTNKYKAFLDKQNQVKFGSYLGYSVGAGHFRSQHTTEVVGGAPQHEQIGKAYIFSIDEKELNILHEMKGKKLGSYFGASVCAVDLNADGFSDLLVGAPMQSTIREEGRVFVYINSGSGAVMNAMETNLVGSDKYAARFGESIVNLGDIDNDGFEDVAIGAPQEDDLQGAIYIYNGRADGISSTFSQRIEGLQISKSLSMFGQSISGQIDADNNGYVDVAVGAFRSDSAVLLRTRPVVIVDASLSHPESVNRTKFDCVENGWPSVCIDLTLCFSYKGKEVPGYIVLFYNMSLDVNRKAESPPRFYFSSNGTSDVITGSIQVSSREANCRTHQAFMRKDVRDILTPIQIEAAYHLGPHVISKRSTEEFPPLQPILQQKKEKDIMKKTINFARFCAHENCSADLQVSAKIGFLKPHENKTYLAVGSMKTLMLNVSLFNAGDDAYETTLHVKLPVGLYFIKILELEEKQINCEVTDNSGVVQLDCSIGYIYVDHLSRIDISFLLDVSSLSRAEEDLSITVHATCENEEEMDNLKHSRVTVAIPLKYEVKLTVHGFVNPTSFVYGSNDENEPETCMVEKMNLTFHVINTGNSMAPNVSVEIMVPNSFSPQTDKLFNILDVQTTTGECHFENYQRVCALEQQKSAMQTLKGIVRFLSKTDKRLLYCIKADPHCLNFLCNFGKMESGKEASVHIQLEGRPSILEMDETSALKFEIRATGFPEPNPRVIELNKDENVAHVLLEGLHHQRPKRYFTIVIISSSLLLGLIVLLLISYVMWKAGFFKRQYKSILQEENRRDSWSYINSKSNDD
Test: allosteric modulators of alpha4 integrin VLA-4 – cell-based, LIBS antibody binding, flow cytometry, SAR follow-up (AID 488791)

| EC50 | SMILES |
| --- | --- |
| 16.4 µM | Cc1ccc(NC(=O)c2cc(-n3c(O)ccc3O)ccc2N2CCOCC2)cc1 |
| 23.3 µM | Cc1ccc(NC(=O)c2cc(-n3c(O)ccc3O)ccc2N2CCOCC2)cc1Cl [VU0419498-1] |

Source: BindingDB's records for doi:10.7270/Q24X5684 (Nmmlsc, 2010)
